Source: US12318452B2, “Degraders of WEE1 kinase” (DANA-FARBER CANCER INSTITUTE, INC., priority 2018, dated 2025)

Columns and labels:
[1] = system: MOLT4 cells; experiment: Cell cycle analysis by propidium iodide staining; assay type: cell-based
Description: MOLT4 cells were plated at 1.5 million cells per well in a 6-well plate, with 3 mL of media per well. Immediately after plating, cells were treated with the indicated concentrations of the indicated compound. At the indicated time points, cells were collected by transferring each well to a 15 mL conical, centrifuging (1000 rpm for 3 min), and then washing the cell pellet 3× with cold PBS. Cell pellets were then fixed with 1 mL cold 80% ethanol in PBS at 4° C. overnight. The cell pellets were then washed by adding 1 mL of PBS and then centrifuging (1500 rpm for 5 minutes), followed by aspiration of the PBS/ethanol mix. Cells were resuspended in cell cycle staining solution (100 μg/mL of RNAse A (Roche, 10109169001) and 50 μg/mL propidium iodide (Life Technologies™, P1304MP), diluted in PBS, and incubated for 10 minutes at room temperature. Cell cycle data was acquired by flow cytometry on a Guava® easyCyte™ flow cytometer (Millipore™) using the InCyte™ software. Data was analyzed using FlowJo®. N=3 biological replicates were used for each treatment condition.

[2] = system: 300 suspension and hematopoietic cancer cell lines; experiment: PRISM pooled cytotoxicity assay; assay type: cell-based
[3] = system: OVCAR8 cells; experiment: Synergy experiment, CellTiter-Glo co-treatment for 72 hours; assay type: cell-based; details: 72-hr co-treatment with Olaparib
[4] = system: MOLT4 cells (parental, wild type); experiment: CellTiter-Glo cell viability, 72 hours; assay type: cell-based; details: Homo sapiens, MOLT-4, 72 hours, read-out: Antiproliferative IC50
Description: The indicated cell lines were plated in flat bottom 384-well plates (Corning® cat #3570). MOLT4 cells were plated at a density of 3,000 cells per well in 50 μL media, while OVCAR8, COV362, and Kuramochi cells were plated at a density of 750 cells per well in 50 μL media. Cells were treated the next day (except for MOLT4 cells, which were treated the same day as plating) with 0.1 μL of the indicated compounds in a four-fold dilution series using the Janus pinner. Cells were incubated with compounds for 72 hours at 37° C. 5% CO2. Anti-proliferative effects were then assessed by CellTiter-Glo® Luminescent Cell Viability Assay (Promega™ cat #G7570) according to the manufacturer's standards, measuring luminescence using an EnVision® plate-reader. IC50 values were determined using a non-linear regression curve fit in GraphPad Prism 8. N=4 biological replicates were used for each treatment condition.
MOLT4 cells were plated in a 384-well plate at 5,000 cells per well in 50 μL media (RPMI+10% FBS+1% Penn/Strep) and treated with 0.1 μL of the candidate compounds in four-fold dilution series using the Janus pinner. Cells were incubated with compounds for 72 hours at 37° C. 5% CO2. Anti-proliferative effects of these compounds were assessed 72 hours after compound addition using CellTiter-Glo® (Promega, cat #G7571). All proliferation assays were performed in biological quadruplicate. […] Effects upon cell viability for compound 13 in the MOLT4 WT cells are therefore likely driven in part by Wee1 inhibition, and in part by CRBN-mediated Wee1 degradation. […] Degradation of Wee1 with compound 21 was mediated by VHL.

[5] = biological target: Wee1 (Homo sapiens, UniProt P30291); experiment: LanthaScreen FRET-based biochemical binding assay for Wee1; details: LanthaScreen Binding activity assay; average of two replicates ± SD
Description: LanthaScreen™ assays were conducted for Wee1 in a 10-point dose response as performed in the commercial assay service by Life Technologies™. Z′-LYTE™ assays were conducted for PLK1 as performed in the commercial assay service by Life Technologies™ in a 10-point dose response using Km ATP concentrations.

[6] = system: pCDK1 Y15; experiment: Downstream signalling immunoblot in MOLT4 cells (pCDK1 Y15, cleaved PARP, γH2Ax); assay type: cell-based
Description: (§1) Whole cell lysates for immunoblotting were prepared by pelleting cells from each cell line at 4° C. (300 g) for 5 minutes. The resulting cell pellets were washed 1× with ice-cold PBS and then resuspended in RIPA lysis buffer (Sigma, cat #R0278) supplemented with protease and phosphatase inhibitor tablets (Roche cat #4906845001). Lysates were clarified at 14,000 rpm for 15 minutes at 4° C. prior to quantification by BCA assay (Pierce™, cat #23225). Whole cell lysates were loaded into Bolt 4-12% Bis-Tris Gels (Thermo Fisher, cat #NW04120BOX) and separated by electrophoreses at 95 V for 1.5 hours. The gels were transferred to a nitrocellulose membrane using the iBlot® Gel Transfer at P3 for 7 minutes (Thermo Fisher, cat #IB23001) and then blocked for 1 hour at room temperature in Odyssey® blocking buffer (LICOR® Biosciences, cat #927-50010). Membranes were probed using antibodies against the relevant proteins at 4° C. overnight in 20% Odyssey® Blocking Buffer in 1×TBST. Membranes were then washed three times with 1×TBST (at least 5 minutes per wash) followed by incubation with the IRDye® goat anti-mouse (LICOR®, cat #926-32210) or goat anti-rabbit (LICOR®, cat #926-32211) secondary antibody (diluted 1:10,000) in 20% Odyssey® Blocking Buffer in 1×TBST for 1 hour at room temperature. After three washes with 1×TBST (at least 5 minutes per wash), the immunoblots were visualized using the ODYSSEY® Infrared Imaging System (LICOR®).
MOLT4 cells were plated at 1.5 million cells per well in a 6-well plate, with 3 mL of media per well. Cells were then immediately treated with the indicated concentration of the indicated compound and incubated for the indicated amount of time. Cells were collected by transferring each well to a 15 mL conical, centrifuging (1000 rpm for 3 min), then washing the cell pellet 2× with cold PBS. Each cell pellet was then lysed in 100 μL of RIPA lysis buffer (+protease/phosphatase inhibitors). Samples were normalized and prepped in 4×LDS+10% β-mercaptoethanol and boiled for 5 min at 95° C. Lysates were probed for specified proteins by western blotting using the Bolt® system (Life Technologies™)
The effects of targeted Wee1 degradation on the cell cycle were evaluated. Wee1 is required for the temporal regulation of CDK1 at the G2/M cell-cycle checkpoint, and Wee1 loss therefore […] via activation of CDK1. Following loss of Wee1 activity, cells are expected to enter mitosis before completing DNA repair, ultimately resulting in excessive unrepaired DNA damage, mitotic catastrophe, and apoptosis (Beck et al., Mol. Cell Biol. 32:4226-4236 (2012)).

[7] = biological target: kinome (Wee1, PLK1); experiment: KINOMEscan profiling; assay type: binding; details: 1 μM
[8] = system: Ikaros (IKZF1), Aiolos (IKZF3); experiment: IKZF1 and IKZF3 degradation by immunoblot in MOLT4 cells; assay type: cell-based
Description: as §1, with “After three washes with 1×TBST (at least 5 minutes per wash), the immunoblots were visualized using the ODYSSEY® Infrared Imaging System (LICOR®).” left out

Sequence of Wee1 (P30291 whole entry): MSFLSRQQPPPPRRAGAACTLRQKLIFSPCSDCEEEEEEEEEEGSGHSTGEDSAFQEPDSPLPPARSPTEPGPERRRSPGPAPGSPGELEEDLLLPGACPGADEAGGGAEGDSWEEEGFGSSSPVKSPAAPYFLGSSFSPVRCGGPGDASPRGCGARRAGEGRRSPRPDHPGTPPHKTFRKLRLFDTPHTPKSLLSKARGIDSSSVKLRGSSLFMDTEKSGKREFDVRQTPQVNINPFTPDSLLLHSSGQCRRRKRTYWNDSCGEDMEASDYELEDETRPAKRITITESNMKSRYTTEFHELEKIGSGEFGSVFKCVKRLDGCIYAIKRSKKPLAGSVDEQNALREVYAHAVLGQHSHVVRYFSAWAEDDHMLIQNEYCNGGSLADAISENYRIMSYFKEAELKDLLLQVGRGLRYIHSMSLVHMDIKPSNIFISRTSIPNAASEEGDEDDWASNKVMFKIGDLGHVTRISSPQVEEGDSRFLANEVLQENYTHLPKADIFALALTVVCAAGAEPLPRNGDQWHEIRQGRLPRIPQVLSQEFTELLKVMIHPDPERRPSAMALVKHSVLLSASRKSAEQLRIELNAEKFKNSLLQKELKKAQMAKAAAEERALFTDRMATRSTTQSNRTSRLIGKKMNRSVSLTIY

SMILES: C=CCn1c(=O)c2cnc(Nc3ccc(N4CCN(CCCNc5cccc6c5C(=O)N(C5CCC(=O)N(C)C5=O)C6=O)CC4)cc3)nc2n1-c1cccc(C(C)(C)O)n1 (stereo not drawn) [Compound 20, 4-((3-(4-(4-((2-allyl-1-(6-(2-hydroxypropan-2-yl)pyridin-2-yl)-3-oxo-2,3-dihydro-1H-pyrazolo[3,4-d]pyrimidin-6-yl)amino)phenyl)piperazin-1-yl)propyl)amino)-2-(1-methyl-2,6-dioxopiperidin-3-yl)isoindoline-1,3-dione]
- Effect on the cell cycle ([1]; 100 nM, 24-hr, MOLT4 cells): did not appreciably affect the cell cycle
- Potency in PRISM panel relative to compound 13 [2]: uniformly less potent
- Synergy with Olaparib [3]: less synergistic activity
- IC50 [4]: 4.56 µM
- IC50 [5]: 0.00738 ± 0.00047 µM

SMILES: C=CCn1c(=O)c2cnc(Nc3ccc(N4CCN(CCCNc5cccc6c5C(=O)N(C5CCC(=O)NC5=O)C6=O)CC4)cc3)nc2n1-c1cccc(C(C)(C)O)n1 (stereo not drawn) [Compound 13, 4-((3-(4-(4-((2-allyl-1-(6-(2-hydroxypropan-2-yl)pyridin-2-yl)-3-oxo-2,3-dihydro-1H-pyrazolo[3,4-d]pyrimidin-6-yl)amino)phenyl)piperazin-1-yl)propyl)amino)-2-(2,6-dioxopiperidin-3-yl)isoindoline-1,3-dione]
- Dose from which pCDK1 Y15 is decreased ([6]; CRBN−/− MOLT4 cells): 1 μM
- Fold lower doses than AZD1775 for the same downstream effects ([6]; MOLT4 cells): up to 10 fold
- Dose from which pCDK1 Y15 is reduced ([6]; parental MOLT4 cells): 100 nM
- G2-M cells ([1]; 100 nM, 24-hr treatment, MOLT4 cells, control 19%): 34%
- Cell cycle effects in CRBN−/− cells ([1]; CRBN−/− MOLT4 cells, 24 hours): absent
- Fold lower doses than AZD1775 inducing premature mitotic entry ([1]; MOLT4 cells): 10 fold
- IC50 ([2]; almost all of the lines tested, data not shown, read-out: IC50 values in PRISM panel): < 1 µM
- Synergy with Olaparib [3]: synergized with Olaparib
- Kinase engagement in KINOMEscan [7]: strong engagement of both Wee1 and PLK1
- IC50 [4]: 0.39 µM
- IC50 [5]: 0.00358 ± 0.00036 µM
- IKZF1 / IKZF3 degradation after 24 hrs ([8]; 24 hrs of drug exposure): degradation of both IKZF1 and IKZF3 was apparent
- IKZF1 / IKZF3 degradation at short time points ([8]; short time points (5-hour)): no degradation of either IKZF1 or IKZF3
